Earlier results on 1 substance are cited in US9241502B2, “Animal feed compositions capable of reducing the incidence of fescue toxicosis in mammals” (priority 2005, dated 2016).

The data set concerns lactating dairy cattle. The conditions noted are these: as a single ingredient.

For the substance Vitamin E, the “effectiveness against fescue toxicosis” value is “not found to be effective”.
